Data taken from patent US20160039879A1, “NOVEL CYCLOSPORIN DERIVATIVES AND USES THEREOF” (S&T Global Inc., priority 2013, published 2016).

How the values were obtained:
[1] = Stability testing: epimerization of cyclosporin derivatives in methanol, monitored by HPLC; type: physicochemical; conditions: Table 9, MeOH at 50° C.-58° C.
[2] = system: HIV-1IIIB; assay: Anti-HIV cytoprotection assay, acute infection model in CEM-SS cells (MTS endpoint); type: cell-based; conditions: HIV-1IIIB in CEM-SS cells, 6-day incubation, read-out: Antiviral activity EC50
Experimental: Anti-HIV activity of cyclosporine derivatives were evaluated by cytoprotection assay in an acute infection model using CEM-SS cells and either HIV-1IIIB or HIV-1 RF. Antiviral activity was determined as a reduction in virus-caused cytopathic effects when compounds prevent virus replication. Cytoprotection and compound cytotoxicity were evaluated using the tetrazollium dye MTS (Promega) to calculate cell viability following virus infection after 6-day incubation (Zhou G., et al., 2011, J. Med. Chem. 27, 7220-31; which is incorporated herein by reference).

[3] = system: HCV replicon in cell line ET (luc-ubi-neo/ET), Huh7 human hepatoma cell line; assay: HCV subgenomic replicon assay (luciferase end point); type: cell-based; conditions: Table 10, HCV replicon, read-out: Antiviral activity EC50

Epimerization % after 168 hours [1] [%] | Compound | other results
0 | C/C=C/C[C@@H](C)[C@@H](O)[C@H]1C(=O)N[C@@H](CC)C(=O)N(C)[C@H](CSCCN(C)C)C(=O)N(C)[C@@H](CC(C)(C)O)C(=O)N[C@@H](C(C)C)C(=O)N(C)[C@@H](CC(C)C)C(=O)N[C@@H](C)C(=O)N[C@H](C)C(=O)N(C)[C@@H](CC(C)C)C(=O)N(C)[C@@H](CC(C)C)C(=O)N(C)[C@@H](C(C)C)C(=O)N1C (single isomer, unassigned) [Example 31, isomer B] | –
0 | C/C=C/C[C@@H](C)[C@@H](O)[C@H]1C(=O)N[C@@H](CC)C(=O)N(C)[C@H](CSCCN(CC)CC)C(=O)N(C)[C@@H](CC(C)(C)O)C(=O)N[C@@H](C(C)C)C(=O)N(C)[C@@H](CC(C)C)C(=O)N[C@@H](C)C(=O)N[C@H](C)C(=O)N(C)[C@@H](CC(C)C)C(=O)N(C)[C@@H](CC(C)C)C(=O)N(C)[C@@H](C(C)C)C(=O)N1C (single isomer, unassigned) [Example 32, isomer B] | –
– | C/C=C/C[C@@H](C)[C@@H](O)[C@H]1C(=O)N[C@@H](CC)C(=O)N(C)[C@H](CSCCN(C)C)C(=O)N(C)[C@@H](CC(C)(C)O)C(=O)N[C@@H](C(C)C)C(=O)N(C)[C@@H](CC(C)C)C(=O)N[C@@H](C)C(=O)N[C@H](C)C(=O)N(C)[C@@H](CC(C)C)C(=O)N(C)[C@@H](CC(C)C)C(=O)N(C)[C@@H](C(C)C)C(=O)N1C (single isomer, unassigned; isomer b) | EC50 [2]: 0.118 µM
– | (S)-2-(N,N-Diethylamino)ethylthio-Sar]-3-[N-MeIle]-4-cyclosporin | EC50 [3]: 1.87 µM

Compound | Epimerization % after 168 hours [1] [%] | other results
CC=CCC(C)C(O)C1C(=O)NC(CC)C(=O)N(C)C(CSCCC(CO)CCC)C(=O)N(C)C(CC(C)(C)O)C(=O)NC(C(C)C)C(=O)N(C)C(CC(C)C)C(=O)NC(C)C(=O)NC(C)C(=O)N(C)C(CC(C)C)C(=O)N(C)C(CC(C)C)C(=O)N(C)C(C(C)C)C(=O)N1C [Example 105, [(S)-((3-(R)-(Hydroxymethyl)hexyl)thio)methyl-Sar]-3-[(γ-hydroxy)-N-MeLeu]-4-cyclosporin] | 0 | –
